Laboratory results: PubChem BioAssay AID1195 (EPA DSSTox, 2008)
Starred links: 1 amine or outer side, 2 acyl side, 3 side chain; linkers in the order of their positions; H or OH if unused. Positions of bridges follow the written chain, without caps; N, C: chain ends. Non-standard residues stand in square brackets, D forms with d. Residues, ends and D or L forms follow the SMILES beside them. *: point of attachment. X1 = NC1=N[C@@H]([C@H](N[*:1])C(=O)[*:2])C[C@H](O)N1; ΔAla(Z-3-ureido) = NC(=O)N/C=C(\N)C(=O)O; β3hOrn = NCCC[C@H](N)CC(=O)*; Dap = NC[C@H](N)C(=O)O

Test system: human maximum recommended daily dose, FDA database
Assay: DSSTox (FDAMDD) FDA Maximum (Recommended) Daily Dose Database
Conditions: hits give low values
Summary of the method: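 MRDD values come from clinical trials with daily oral dosing, usually for 3–12 months, for the average adult, in mg/day converted to mg/kg-bw/day assuming 60 kg. Antineoplastic mg/m2 doses are divided by 37. Activity score maps log10(1/MRDD mmol) onto 1–100.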

[1] = TherapeuticCategory: antihypertensive
[2] = TherapeuticCategory: antidepressant
[3] = TherapeuticCategory: antibacterial
[4] = TherapeuticCategory: diagnostic aid

For CC[C@@H](CO)NC(=O)[C@@H]1C=C2c3cccc4c3c(cn4C)C[C@H]2N(C)C1, the maximum recommended daily dose (mmol/kg-bw/day) (TherapeuticCategory: antimigraine) was 0.000283.
N=C(N)N1CCc2ccccc2C1 was tested, and the maximum recommended daily dose (mmol/kg-bw/day) [1] was 0.0285.
C#CCN(C)[C@H](C)Cc1ccccc1 showed a maximum recommended daily dose (mmol/kg-bw/day) (TherapeuticCategory: antiparkinsonian) of 0.000892.
COC(=O)C1=C(C)NC(C)=C(C(=O)OCC(C)C)C1c1ccccc1[N+](=O)[O-] (stereo not drawn) was tested, and the maximum recommended daily dose (mmol/kg-bw/day) (TherapeuticCategory: antihypertensive, antianginal) was 0.00172.
Compound C[N+](C)(C)CC(O)CC(=O)[O-] (stereo not drawn) has a maximum recommended daily dose (mmol/kg-bw/day) (TherapeuticCategory: antihyperlipoproteinemic) of 0.104.
CNCCCN1c2ccccc2CCc2ccccc21 showed a maximum recommended daily dose (mmol/kg-bw/day) [2] of 0.0188.
C#C[C@]1(O)CC[C@H]2[C@@H]3CCC4=C(CCC(=O)C4)[C@H]3CC[C@@]21C was tested, and the maximum recommended daily dose (mmol/kg-bw/day) (TherapeuticCategory: progestogen) was 0.00224.
CO[C@H]1/C=C/O[C@@]2(C)Oc3c(C)c(O)c4c(O)c(c(/C=N/N5CCN(C)CC5)c(O)c4c3C2=O)NC(=O)/C(C)=C\C=C\[C@H](C)[C@H](O)[C@@H](C)[C@@H](O)[C@@H](C)[C@H](OC(C)=O)[C@@H]1C showed a maximum recommended daily dose (mmol/kg-bw/day) [3] of 0.0243.
Work on CC[N+]1(CC)CCC(=C(c2ccccc2)c2ccccc2)C1C (stereo not drawn) yielded a maximum recommended daily dose (mmol/kg-bw/day) (TherapeuticCategory: antispasmodic) of 0.00518.
For CCCCCCCCCC(=O)OCCN1CCN(CCCN2c3ccccc3Sc3ccc(C(F)(F)F)cc32)CC1, the maximum recommended daily dose (mmol/kg-bw/day) (TherapeuticCategory: antispsychotic) was 0.000563.
Work on Cc1ccccc1-n1c(CF)nc2ccc(N)cc2c1=O yielded a maximum recommended daily dose (mmol/kg-bw/day) (TherapeuticCategory: skeletal muscle relaxant) of 0.00353.
CN[C@H]1CC[C@@H](c2ccc(Cl)c(Cl)c2)c2ccccc21 was tested, and the maximum recommended daily dose (mmol/kg-bw/day) [2] was 0.0109.
Cc1ccc(N(CC2=NCCN2)c2cccc(O)c2)cc1 was tested, and the maximum recommended daily dose (mmol/kg-bw/day) (TherapeuticCategory: antihypertensive, diagnostic aid) was 0.000594.
CCOC(=O)CCCCCCCCC(C)c1ccccc1I (stereo not drawn) was tested, and the maximum recommended daily dose (mmol/kg-bw/day) [4] was 0.3.
NCCC[C@H](N)CC(=O)N[C@H]1CNC(=O)[C@H]([C@H]2C[C@H](O)NC(N)=N2)NC(=O)/C(=C/NC(N)=O)NC(=O)[C@H](CO)NC(=O)[C@H](CO)NC1=O (β3hOrn-[Dap]SS[ΔAla(Z-3-ureido)][X1]; lactam 1-C) showed a maximum recommended daily dose (mmol/kg-bw/day) [3] of 0.0973.
NS(=O)(=O)c1cc(C(=O)O)cc(N2CCCC2)c1Oc1ccccc1 gave a maximum recommended daily dose (mmol/kg-bw/day) (TherapeuticCategory: diuretic) of 0.000552.
COc1ccnc(CS(=O)c2nc3ccc(OC(F)F)cc3[nH]2)c1OC (stereo not drawn) gave a maximum recommended daily dose (mmol/kg-bw/day) (TherapeuticCategory: antiulcerative) of 0.00174.
CCCCNC(=O)NS(=O)(=O)c1ccc(C)cc1 gave a maximum recommended daily dose (mmol/kg-bw/day) (TherapeuticCategory: hypoglycemic agent) of 0.123.
Compound O=c1ccc2ccccc2o1 has a maximum recommended daily dose (mmol/kg-bw/day) (TherapeuticCategory: pharmaceutic aid) of 0.0114.
COC(=O)[C@H](c1ccccc1Cl)N1CCc2sccc2C1 gave a maximum recommended daily dose (mmol/kg-bw/day) (TherapeuticCategory: antithrombotic) of 0.00388.
In the case of CO[C@H]1[C@@H](O)[C@H](N)[C@@H](O[C@H]2O[C@H]([C@H](C)N)CC[C@H]2N)[C@H](O)[C@@H]1N(C)C(=O)CN, the maximum recommended daily dose (mmol/kg-bw/day) [3] is reported as 0.0164.
Cc1ccc(/C(=C/CN2CCCC2)c2ccccn2)cc1 showed a maximum recommended daily dose (mmol/kg-bw/day) (TherapeuticCategory: antihistaminic) of 0.0006.
Compound CCN1CCN(C(=O)N[C@@H](C(=O)N[C@@H]2C(=O)N3C(C(=O)O)=C(CSc4nnnn4C)CS[C@H]23)c2ccc(O)cc2)C(=O)C1=O has a maximum recommended daily dose (mmol/kg-bw/day) [3] of 0.31.
In the case of CN1[C@@H](CC(=O)c2ccccc2)CCC[C@H]1C[C@H](O)c1ccccc1, the maximum recommended daily dose (mmol/kg-bw/day) (TherapeuticCategory: respiratory stimulant) is reported as 0.000495.
For CC1=C(C(=O)O)N2C(=O)[C@@H](NC(=O)[C@H](N)c3ccc(O)cc3)[C@H]2SC1, the maximum recommended daily dose (mmol/kg-bw/day) [3] was 0.046.
COc1cnc(NS(=O)(=O)c2ccc(N)cc2)nc1 showed a maximum recommended daily dose (mmol/kg-bw/day) [3] of 0.0892.
CCC(C)C(CC)C(=O)NC(N)=O (stereo not drawn) showed a maximum recommended daily dose (mmol/kg-bw/day) (TherapeuticCategory: hypnotic) of 0.0358.
With Cc1cn([C@H]2C[C@H](N=[N+]=[N-])[C@@H](CO)O2)c(=O)[nH]c1=O the maximum recommended daily dose (mmol/kg-bw/day) (TherapeuticCategory: antiviral) was 0.0374.
In the case of C[C@H]1C[C@@H]2[C@H]([C@@H](O)C[C@@]3(C)[C@H]2CC[C@]3(O)C(=O)CO)[C@@]2(C)C=CC(=O)C=C12, the maximum recommended daily dose (mmol/kg-bw/day) (TherapeuticCategory: glucocorticoid) is reported as 0.0111.
CCN(CC)CCOC(=O)C(c1ccccc1)c1ccccc1 gave a maximum recommended daily dose (mmol/kg-bw/day) (TherapeuticCategory: anticholinergic) of 0.0241.
Work on CNC(=O)c1c(I)c(C(=O)NCC(=O)Nc2c(I)c(C(=O)O)c(I)c(C(=O)NCCO)c2I)c(I)c(N(C)C(C)=O)c1I yielded a maximum recommended daily dose (mmol/kg-bw/day) [4] of 0.0788.
In the case of CCCC(=O)N1CCCN(c2nc(N)c3cc(OC)c(OC)cc3n2)CC1, the maximum recommended daily dose (mmol/kg-bw/day) [1] is reported as 0.000134.
COc1cc(OC)c(C(=O)CCCN2CCCC2)c(OC)c1 gave a maximum recommended daily dose (mmol/kg-bw/day) (TherapeuticCategory: peripheral vasodilator) of 0.0325.
O=C(CCCN1CCC(O)(c2ccc(Br)cc2)CC1)c1ccc(F)cc1 gave a maximum recommended daily dose (mmol/kg-bw/day) (TherapeuticCategory: antipsychotic) of 0.00198.
In the case of Nc1nc(F)nc2c1ncn2[C@@H]1O[C@H](COP(=O)(O)O)[C@@H](O)[C@@H]1O, the maximum recommended daily dose (mmol/kg-bw/day) (TherapeuticCategory: antineoplastic) is reported as 0.00185.
CCC(C)n1ncn(-c2ccc(N3CCN(c4ccc(OC[C@H]5CO[C@](Cn6cncn6)(c6ccc(Cl)cc6Cl)O5)cc4)CC3)cc2)c1=O (stereo partly drawn) showed a maximum recommended daily dose (mmol/kg-bw/day) (TherapeuticCategory: antifungal) of 0.0142.
With CC(O)C(=O)O (stereo not drawn) the maximum recommended daily dose (mmol/kg-bw/day) (TherapeuticCategory: acidulant) was 1.11.
CN1C(=O)CN=C(c2ccccc2F)c2cc([N+](=O)[O-])ccc21 was tested, and the maximum recommended daily dose (mmol/kg-bw/day) (TherapeuticCategory: hypnotic) was 0.000106.
